Assay results taken from US7153853B2, “Heterocyclic compounds and antitumor drugs containing the same as the active ingredient” (Zenyaku Kogyo Kabushiki Kaisha, priority 2002, dated 2006).
Where two headings read alike, the source gives them in different places.

How the values were obtained:
MCF-7 cells = assay: Test 1: growth inhibition of MCF-7 human breast cancer cells; format: cell-based; details: read-out: GI50 (50% growth inhibition concentration)
Method: Used in the test were MCF-7 cells which were established from human breast cancer and were cultured routinely under the conditions of 37° C. and 5% CO2, in MEM medium supplemented with 10% fetal calf serum, 25 mM of HEPES and 0.1 mg/ml of kanamycin. The MCF-7 cells in a logarithmic growth phase were treated with trypsin/EDTA to prepare single cell suspension adjusted to 4.0×10^4 cells/ml in MEM medium (supplemented with 10% fetal calf serum, 25 mM of HEPES and 0.1 mg/ml of kanamycin). Test compounds were dissolved in DMSO and diluted with RPMI 1640 medium (supplemented with 10% fetal calf serum, 25 mM of HEPES and 0.1 mg/ml of kanamycin) to a concentration of 2.0×10^−9−2.0×10^−4 M.
The cell suspension was filled in a 96-wells microplate at a rate of 0.1 ml per well and was cultured for 24 hours so as to make the cells adhered to the microplate. Then, it was added with 0.1 ml of the sample solution and cultured at 37° C. for 72 hours in 5% CO2.
50% Growth inhibition concentrations (GI50 μM) were calculated from growth inhibitions at various sample concentrations.

[1] = test system: human colonic cancer WiDr; assay: Test 2: human colonic cancer WiDr transplanted subcutaneously in nude mice, relative tumor growth T/C; format: in vivo, BALB/c nude mice; details: 200 mg/kg intraperitoneally, once a day, six times a week, two weeks; effective (+) = T/C less than 50% and Mann-Whitney significant at one-sided 1%
Source text: Mutant BALB/c nude mice were used for routine culture of 2-mm-square piece of human colonic cancer WiDr which was transplanted subcutaneously into left breast of each of the mice. The mice were separated for testing into groups each of five mice at the time of the tumor in its logarithmic growth phase. The samples prepared by dissolving test compounds in physiological saline solution or suspending them in 1% hydroxypropyl cellulose (HPC), using an agate mortar, were intraperitoneally administered at a rate of 200 mg/kg, once a day and six times a week in total, for two weeks. Major and minor axes of the tumor mass were measured on a daily basis to calculate tumor volume. […] As a result, the compound according to the present invention was effective whereas the comparative compound A was ineffective.

[2] = Homo sapiens, MCF7, cultured 72 hours with sample

Row | SMILES | melting point | GI50 (MCF-7 cells; [2]) | GI50 (MCF-7 cells; cultured 72 hours with sample) | antitumor effect judged from T/C (%) of the last day [1]
1 | CN1CCC(N(C)c2nc(N3CCOCC3)nc(-n3c(C(F)F)nc4c(Cl)cc(N)cc43)n2)CC1 | 194 °C (dec.) |  |  | 
2 | OCC1CCCN1c1cc(N2CCOCC2)nc(-n2c(C(F)F)nc3c(O)cccc32)n1 (stereo not drawn) [compound 1, 2-(2-difluoromethyl-4-hydroxybenzimidazol-1-yl)-4-(2-hydroxymethylpyrrolidin-1-yl)-6-morpholinopyrimidine] | 195 to 198 °C | 70 nM |  | 
3 | Nc1cc(Cl)c2nc(C(F)F)n(-c3nc(N4CCOCC4)nc(N4CCCC4CO)n3)c2c1 (stereo not drawn) [compound 3, 2-(6-amino-4-chloro-2-difluoromethylbenzimidazol-1-yl)-4-(2-hydroxymethylpyrrolidin-1-yl)-6-morpholino-1,3,5-triazine] | 256 °C (dec.) | 270 nM |  | 
4 | c1cn(-c2nc(N3CCOCC3)nc(N3CCOCC3)n2)cn1 [compound C, 2-(imidazol-1-yl)-4,6-dimorpholino-1,3,5-triazine, reference compound] |  | 20000 nM |  | 
5 | CN(C)c1nc(N(C)C)nc(N(C)C)n1 [compound D, hexamethylmelamine, reference compound] |  | > 100000 nM |  | 

Further lines, with some results ahead:

Row | melting point | GI50 (MCF-7 cells; [2]) | GI50 (MCF-7 cells; cultured 72 hours with sample) | SMILES | antitumor effect judged from T/C (%) of the last day [1]
6 |  | 2200 nM |  | C[C@@H]1OCCN(c2cc(N3CCOCC3)nc(-n3cnc4ccccc43)n2)[C@H]1C (relative stereo) [compound A, 2-(benzimidazol-1-yl)-4-(trans-2,3-dimethylmorpholino)-6-morpholinopyrimidine, reference compound] | ineffective
7 | 238 °C (dec.) | 80 nM |  | CC1(C)CN(c2nc(N3CCOCC3)nc(-n3c(C(F)F)nc4c(Cl)cc(N)cc43)n2)CCO1 [compound 2, 2-(6-amino-4-chloro-2-difluoromethylbenzimidazol-1-yl)-4-(2,2-dimethylmorpholino)-6-morpholino-1,3,5-triazine] | 
8 |  |  | 60 nM | OCC1CCCN1c1nc(N2CCOCC2)nc(-n2c(C(F)F)nc3c(O)cccc32)n1 (stereo not drawn) [compound 5, 2-(2-difluoromethyl-4-hydroxybenzimidazol-1-yl)-4-(2-hydroxymetylpyrrolidin-1-yl)-6-morpholino-1,3,5-triazine] | 
9 | > 250 °C | 80 nM |  | Oc1ccc2c(nc(C(F)F)n2-c2nc(N3CCOCC3)nc(N3CCOCC3)n2)c1Cl [compound 6, 2-(4-chloro-2-difluoromethyl-5-hydroxybenzimidazol-1-yl)-4,6-dimorpholino-1,3,5-triazine] | 
10 |  | 3700 nM |  | Cc1nc2ccccc2n1-c1nc(N2CCOCC2)nc(N2CCOCC2)n1 [compound B, 2-(2-methylbenzimidazol-1-yl)-4,6-dimorpholino-1,3,5-triazine, reference compound] | 
